The test system of test [1] is APP/PS1 mice. The experiment in a line: Amyloid burden in brain by OC immunohistochemistry. It is filed as in vivo. The source says:
To evaluate the activity of TGR63 to ameliorate amyloid burden in in vivo AD model, APP/PS1 mice were bred, maintained and characterized (WT: wild type; AD: APP/PS1 positive) according to the Jackson Laboratory protocols. The double transgenic APP/PS1 mice (B6C3-Tg (APPswe, PSEN IdE9)85Dbo/J; stock number 004462), which express human transgenes APP and presenilin 1 (PS1) in the central nervous system (CNS) contains the Swedish and […], respectively. The K595N/M596L (Swedish) mutation favors the amyloidogenic processing of APP protein, and PS1 mutation ([…]) elevates the production of Aβ peptides through modifying the intra-membrane γ-complex. The presence of Aβ plaques in the APP/PS 1 AD phenotypic mouse brain was confirmed and compared with the healthy brain by Aβ plaques-specific staining protocols. FIG. 13 depicts the Staining of amyloid plaques with OC primary antibody and ThT or CQ probe, FIG. 13A represent the high-resolution confocal microscopy images of cortex and hippocampus regions of the AD mouse brain, immunostained with OC antibody (red), DAPI (blue) and ThT (green). The merged images display significant overlap between ThT and OC staining to confirm the amyloid deposition (pointed with white arrows), FIG. 13A represent the visualization of amyloid deposits associated neuronal damage: The DIC images of different regions of AD. The merged images of DIC and confocal microscopy images show amyloid plaques associated brain damage (pointed out with red arrows). The brains were harvested from the age matched WT and AD mice and treated with PFA (4%) and sucrose solution (30%) for the sagittal brain sectioning (40 µm sections). The brain sections were co-stained with ThT (λex= 442 nm, λem= 482 nm) and OC primary antibody followed by fluorescently labeled secondary antibody (λex= 633 nm, λem= 650 nm) or CQ to visualize and confirm the amyloid plaques deposition. […] Similar fluorescence signals (green and red) were absent in the age-matched WT brain section, confirming the amyloid plaques-free healthy brain (FIG. 13A). The hippocampal damage, a hallmark of advanced AD condition was partially observed in 14 month old APP/PS1 mice. Age-matched AD, and WT cohorts were administered with TGR63 (5 mg/kg body weight/day) and vehicle starting from the age of 6 months following the treatment protocols as shown in FIG. 14. The experimental mice were sacrificed after completing the behavioral studies (14 months) to investigate amyloid deposits in the brain using immunohistochemistry. The sagittal brain sections were permeabilized and blocked with PBTx (0.1 M PBS and 0.1% TritonX-100) and goat serum (1%) containing BSA (2%) at room temperature, respectively. […]

Test [2] has as its target α-Syn (Homo sapiens, UniProt P37840). The experiment in a line: ThT binding assay, α-Syn aggregation inhibition. The class given is biochemical. The source says:
Parkinson’s disease (PD) is a neuronal disorder, mainly affects the motor system. α-Syn is a presynaptic neuronal protein that is linked neuropathologically to PD plays a vital role in the pathogenesis in a number of ways. Self-aggregation of α-Syn to form fibrillar aggregates and these toxic species mediate disruption of cellular homeostasis and cause neuronal death. These toxic aggregates affect various intracellular targets, especially synaptic function. In this context, NMI compounds of the present disclosure were used to study the possible modulation of α-Syn aggregation. The effect of NMI compounds (TGR63 and TGR64) on α-syn (100 µM) aggregation inhibition was studied through ThT binding assay. Experiments were performed at stoichiometric ratios (α-Syn:inhibitor) of 1:1, 1:2, and 1:5 with the fixed concentration of α-Syn at 100 µM.

SMILES strings stand for the structures.

`CN(C)c1ccc(C#Cc2ccc3c4c(cccc24)C(=O)N(CC[N+](C)(C)C)C3=O)cc1` [TGR63, 2-(6-((4-(dimethylamino)phenyl)ethynyl)-1,3-dioxo-1H-benzo[de]isoquinolin-2(3H)-yl)-N,N,N-trimethylethan-1-aminium]: in test [1] (AD (APP/PS1) mice, 5 mg/kg body weight/day from 6 to 14 months, vehicle 6.28%), the “Aβ plaques deposits, area of the hippocampus” value stood at 0.94 % area. Besides, the “Aβ plaques deposits, area of the cortex” value in test [1] (AD (APP/PS1) mice, 5 mg/kg body weight/day from 6 to 14 months, vehicle 8.87%) stood at 1.94 % area. Besides, the “reduction of Aβ deposits in the cortex” value in test [1] (AD mice, versus vehicle) turned out to be 78%. In addition, the “reduction of Aβ deposits in the hippocampus” value in test [1] (AD mice, versus vehicle) is 85%. Moreover, in test [2] (α-Syn:inhibitor 1:1, α-Syn 100 µM), the “decrease in the formation of α-Syn aggregates” value is recorded as ~ 54%. Besides, the “α-Syn aggregation decreased to” value in test [2] (α-Syn:inhibitor 1:2, α-Syn 100 µM) was 65%; in test [2] (α-Syn:inhibitor 1:5, α-Syn 100 µM) it was 93%.

For the origin of these results see patent US20230331679A1, “NAPHTHALENE MONOIMIDE COMPOUNDS AND METHODS THEREOF” (JAWAHARLAL NEHRU CENTRE FOR ADVANCED SCIENTIFIC RESEARCH, priority 2020, published 2023).
